# From patent publication US20140349941A1, “AROMATIC-CATIONIC PEPTIDES AND USES OF SAME” (Cornell University, priority 2011, published 2014)
# Where no end group is shown, it is not given here. [ ]: non-standard residue; d: D form.
# Tests used:
# cytochrome c (with CL) = cytochrome c (with CL) (Homo sapiens, UniProt P99999); test: Cytochrome c reduction inhibited by CL; format: biochemical; settings: 500 μM GSH; FIG. 25C
# Procedure: Cytochrome c is a carrier of electrons between respiratory complex III and IV in mitochondria. Cytochrome c is reduced (Fe^2+) after it accepts an electron from cytochrome c reductase, and it is then oxidized to Fe^3+ by cytochrome c oxidase.
# Reduction of cytochrome c (20 μM) was induced by the addition of glutathione (500 μM) in the absence or presence of CL (100 μg/ml) (FIG. 25A). Reduction of cytochrome c was monitored by absorbance at 550 nm using a 96-well UV-VIS plate reader (Molecular Devices). Addition of CL decreased the rate of cytochrome c reduction by half.
# cytochrome c-CL complex [1] = target: T1, cytochrome c-CL complex (Homo sapiens, UniProt P99999); test: Cytochrome c/CL peroxidase activity (amplex red); format: biochemical; settings: figure legend FIG. 29A-C; comparison at a fixed concentration of 10 μM (FIG. 29C)
# Text: The six coordination of the heme in cytochrome c prevents direct interaction of H2O2 with the catalytic metal site, and native cytochrome c in solution is a poor peroxidase. Upon interaction with CL, cytochrome c undergoes a structural change with rupture of the Fe-Met80 coordination. […] The mechanism of action of cytochrome c peroxidase is similar to that of other peroxidases, such as horse radish peroxidase (HRP). Thus it is possible to use the amplex red-HRP reaction to investigate cytochrome c peroxidase activity. In the presence of peroxidase, amplex red (AR) reacts with H2O2 to form the red-fluorescent oxidation product, resorufin (Ex/Em=571/585).
# Cytochrome c (2 μM) was mixed with CL (25 μg/ml) and 10 μM H2O2 in 20 mM HEPES, pH 7.4. Amplex red (50 μM) was then added and fluorescence emission monitored in real time using Hitachi F4500 fluorescence spectrophotometer. Addition of amplex red elicited rapid increase in fluorescence signal due to resorufin formation, providing direct evidence for peroxidase activity of cytochrome c/CL complex (FIG. 29A).
# [2] = target: heme environment of cytochrome c (with CL) (Homo sapiens, UniProt P99999); test: Soret CD spectrum of cyt C in the presence of CL; format: binding; settings: cyt C 10 μM; CL 30 μg/ml; peptide 10 μM; 20 mM HEPES pH 7.5, 25° C.; FIG. 24
# Procedure: Circular dichroism (CD) was carried out to examine the effects of the peptides on protecting the heme environment of cyt C from the acyl chain of CL. For heme proteins, the Soret CD spectrum is strictly correlated with the heme pocket conformation. In particular, the negative 416-420 nm Cotton effect is considered diagnostic of Fe(III)-Met80 coordination in native cyt C (Santucci and Ascoli, 1997). […] CD spectra were obtained using AVIV CD Spectrometer Model 410.
# Changes in the Soret CD spectrum of cyt C (10 μM) were recorded in the absence (dotted line) and presence (dashed line) of 30 μg/ml CL, plus addition of different peptides (10 μM) (solid line) (FIG. 24). CD measurements were carried out using 20 mM HEPES, pH 7.5, at 25° C. and expressed as molar ellipticity (θ) (m Deg).
# [3] = Fluorescence spectroscopy of peptide interaction with cardiolipin; format: binding; settings: for increase in quantal yield of peptide fluorescence: peptide 1 μM
# Text: The peptides Dmt-D-Arg-(atn)Dap-Lys-NH2 (SS-19) and Dmt-D-Arg-Phe-Lys-Ald-NH2 (SS-37)cationic peptides carry net positive charge at neutral pH. They are expected to associate with anionic phospholipid cardiolipin based on electrostatic interaction. The interaction of small peptides with lipid membranes can been studied using fluorescence spectroscopy (Surewicz and Epand, 1984). […] Polarity-sensitive fluorescent probes were incorporated into the peptides and fluorescence spectroscopy was used to determine if SS-19, SS-37 and SS-36 interact with CL.
# The peptide Dmt-D-Arg-Phe-(atn)Dap-NH2 (SS-19) contains anthraniloyl incorporated into diaminopropionic acid. Anthraniloyl derivatives fluoresce in the 410-420 nm range when excited at 320-330 nm (Hiratsuka T, 1983). The quantum yield of anthraniloyl derivatives is strongly dependent on the local environment, and can increase 5-fold going from water to 80% ethanol, together with a blue shift in the emission maxima (λ max) of <10 nm (Hiratsuka T, 1983). Fluorescence emission spectrum of SS-19 (1 μM) alone, and in the presence of increasing concentrations of CL (5 to 50 μg/ml), was monitored following excitation at 320 nm using Hitachi F-4500 fluorescence spectrophotometer.
# The peptide Dmt-D-Arg-Phe-Lys-Ald-NH2 (SS-37) contains an additional amino acid, aladan (Ald), which has been reported to be particularly sensitive to the polarity of its environment and it has been used to probe the electrostatic character of proteins (Cohen et al., 2002). When excited at 350 nm, λmax shifts from 542 nm in water to 409 nm in heptane, accompanied by a significant increase in quantal yield (Cohen et al., 2001). Fluorescence emission spectrum of SS-37 (1 μM) alone, and in the presence of increasing concentrations of CL, was monitored following excitation at 350 nm. Addition of CL (5 to 50 μg/ml) led to a 3-fold increase in quantal yield of SS-37 as well as a clear blue shift in λmax, from 525 nm without CL to 500 nm with 50 μg/ml CL (FIG. 21B).
# The peptide Dmt-D-Arg-Ald-Lys-NH2 (SS-36) contains Ald in place Phe^3. Fluorescence emission spectrum of SS-36 (1 μM) alone, and in the presence of increasing concentrations of CL, was monitored following excitation at 350 nm. SS-36 was the most sensitive to the addition of CL, with dramatic increase in quantal yield and blue shift observed with much lower added amounts of CL (1.25 to 5 μg/ml). The λmax shifted from 525 nm without CL to 500 nm with as little as 1.25 μg/ml CL, and quantal yield increased by more than 100-fold with the addition of 5 μg/ml of CL (FIG. 21C).
# cytochrome c-CL complex [4] = target: T1, cytochrome c-CL complex; test: Fluorescence spectroscopy of peptide with cytochrome c in the presence of CL; format: binding; settings: for peptide fluorescence on addition of cytochrome c in the presence of CL: 2 μM cytochrome c; for emission maxima: with CL 2.5 μg/ml
# Procedure: Fluorescence emission of SS-19 (10 μM) was monitored in real time (Ex/Em=320 nm/420 nm) using Hitachi F-4500 fluorescence spectrophotometer. […] CL may potentiate the interaction between SS-19 and cytochrome c by serving as an anionic platform for the two cationic molecules.
# The quenching by cytochrome c was not displaced by sequential additions of bovine serum albumin (500 μg/ml) (FIG. 23C, A+arrows).
# SS-36 also contains the polarity-sensitive fluorescent amino acid aladan.
# cytochrome c = cytochrome c (Homo sapiens, UniProt P99999); test: Cytochrome c reduction monitored by absorption spectroscopy (glutathione or NAC as reducing agent); format: biochemical; settings: absorbance at 550 nm; FIG. 13
# Procedure: Cytochrome c reduction: increasing amounts of aromatic-cationic peptides were added to a solution of oxidized cyt c. The formation of reduced cyt c was monitored by absorbance at […]. The rate of cyt c reduction was determined by non-linear analysis (Prizm software).
# Time-resolved UV-Visible absorption spectroscopy was used to study the electron transport process of cyt c in the presence of peptides. Reduced cyt c was monitored by absorbance at a broad-band spectral range (200-1100 nm). The absorption changes were recorded with a UV/Visible spectrophotometer (Ultrospec 3300 pro, GE) in quartz cells with path lengths of 1 or 2 mm. N-acetylcysteine (NAC) and glutathione were used as electron donors to reduce oxidized cyt c. The rate constant of cyt c reduction was estimated by adding various concentrations of peptides. The dose dependence of the peptides was correlated to the cyt c reduction kinetics.
# Absorption spectroscopy (UltroSpec 3300 Pro; 220-1100 nm) was used to determine if SS-31 modulates cyt c reduction (FIG. 1). Reduction of cyt c with glutathione is associated with multiple shifts in the Q band (450-650 nm), with a prominent shift at 550 nm.
# Reduction of cyt c was monitored by increase in absorbance at 550 nm. […] Similar results were obtained using N-acetylcysteine (NAC) as a reducing agent (not shown).
# [5] = system: isolated rat kidney mitochondria; test: O2 consumption of isolated rat kidney mitochondria (Oxygraph); format: biochemical
# Procedure: (§1) Fresh mitochondria were isolated from rat kidney as described previously. Electron flux was measured by O2 consumption (Oxygraph Clark electrode) as previously described using different substrates for C1 (glutamate/malate), C2 (succinate), and C3 (TMPD/ascorbate). Assays were carried out under low substrate conditions in order to avoid saturating the enzyme reactions. ATP production in isolated mitochondria was determined kinetically using the luciferase method (Biotherma) in a 96-well luminescence plate reader (Molecular Devices). The initial maximal rate for ATP synthesis was determined over the first minute.
# Oxygen consumption of isolated rat kidney mitochondria was determined using the Oxygraph (FIG. 5). Rates of respiration were measured in the presence of different concentrations of SS-31 in state 2 (400 μM ADP only), state 3 (400 μM ADP and 500 μM substrates) and state 4 (substrates only). All experiments were done in triplicate with n=4-7.
# (§2) SS-20 or SS-31 was added at 100 μM concentrations to isolated mitochondria in respiration buffer containing 0.5 mM succinate (complex II substrate) and 400 μM ADP. Similar increases in O2 consumption were observed when low concentrations of complex I substrates (glutamate/malate) were used (data not shown).
# SS-20 or SS-31 was added at 10 μM or 100 μM concentrations to isolated mitochondria in respiration buffer containing glutamate/malate (complex I substrate), 0.5 mM succinate (complex II substrate) or 3 μM TMPD/1 mM ascorbate (direct reductant of cyt C). 400 μM ADP was added to initiate State 3 respiration.
# isolated mitochondria = test: ATP synthesis in isolated mitochondria; format: biochemical, rat; settings: mitochondria energized with low concentrations of succinate; FIG. 15
# Procedure: as §1
# The rate of mitochondrial ATP synthesis was determined by measuring ATP in respiration buffer collected from isolated mitochondria 1 min after addition of […] (FIG. 6). ATP was assayed by HPLC. All experiments were carried out in triplicate, with n=3.
# as §2
# Increase in electron flux in the electron transport chain can either result in increase in ATP synthesis or increase in electron leak and generation of free radicals. ATP synthesis in isolated mitochondria was assayed by HPLC.
# T1 sequence (P99999 2-105 limits assumed, species assumed, one chain of several): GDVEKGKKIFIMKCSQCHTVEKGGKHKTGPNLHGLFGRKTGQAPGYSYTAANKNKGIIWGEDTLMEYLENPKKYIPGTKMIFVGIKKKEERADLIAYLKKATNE
# heme environment of cytochrome c (with CL), sequence (P99999 2-105 limits assumed, species assumed): as the sequence (P99999 2-105 limits assumed, species assumed, one chain of several) above
# cytochrome c (with CL), sequence (P99999 2-105 limits assumed, species assumed): as the sequence (P99999 2-105 limits assumed, species assumed, one chain of several) above
# cytochrome c, sequence (P99999 2-105 limits assumed, species assumed): as the sequence (P99999 2-105 limits assumed, species assumed, one chain of several) above
substance,measurement,setting,value
D-Arg-Tyr-Lys-Phe-NH2 ([dR]YKF-NH2; N-terminus assumed; SMILES N=C(N)NCCC[C@@H](N)C(=O)N[C@@H](Cc1ccc(O)cc1)C(=O)N[C@@H](CCCCN)C(=O)N[C@@H](Cc1ccccc1)C(N)=O) [SPI-231],CL inhibition of cyt C reduction,cytochrome c (with CL),prevented CL inhibition of cyt C reduction
same,peroxidase activity in cytochrome c/CL complex,cytochrome c-CL complex [1],preventing peroxidase activity in cytochrome c/CL complex
same,disappearance of the negative Cotton effect caused by CL (heme environment of cytochrome c),[2],Protect the Heme Environment of Cytochrome C from the Acyl Chain of CL
Dmt-D-Arg-Ald-Lys-NH2 [SS-36],increase in quantal yield of peptide fluorescence,"[3]; CL 5 μg/ml, excitation 350 nm",more than 100 fold
same,λmax of fluorescence emission,"[3]; with 1.25 μg/ml CL, excitation 350 nm",500 nm
same,λmax of fluorescence emission,"[3]; without CL, excitation 350 nm",525 nm
same,peroxidase activity in cytochrome c/CL complex,cytochrome c-CL complex [1],preventing peroxidase activity in cytochrome c/CL complex
same,disappearance of the negative Cotton effect caused by CL (heme environment of cytochrome c),[2],Protect the Heme Environment of Cytochrome C from the Acyl Chain of CL
same,peptide fluorescence on addition of cytochrome c in the presence of CL,"cytochrome c-CL complex [4]; CL 2.5 μg/ml, FIG. 23D",dramatic quenching of peptide's fluorescence
same,peptide fluorescence on addition of CL,"cytochrome c-CL complex [4]; CL 2.5 μg/ml, FIG. 23D",increase in SS-36 fluorescence
same,emission maxima,cytochrome c-CL complex [4]; after 2 μM cytochrome c,450 nm
same,emission maxima,cytochrome c-CL complex [4]; before cytochrome c,510 nm
Dmt-D-Arg-Phe-Lys-Ald-NH2 [SS-37],increase in quantal yield of peptide fluorescence,[3]; CL 5-50 μg/ml,3 fold
same,λmax of fluorescence emission,"[3]; with 50 μg/ml CL, excitation 350 nm",500 nm
same,λmax of fluorescence emission,"[3]; without CL, excitation 350 nm",525 nm
same,peroxidase activity in cytochrome c/CL complex,cytochrome c-CL complex [1],preventing peroxidase activity in cytochrome c/CL complex
same,displacement of cytochrome c quenching by bovine serum albumin in the presence of CL,"cytochrome c-CL complex [4]; CL 50 μg/ml, BSA 500 μg/ml, FIG. 23C",not displaced
same,peptide fluorescence on addition of cytochrome c in the presence of CL,"cytochrome c-CL complex [4]; peptide 10 μM, CL 50 μg/ml",similarly quenched
F[dR]FK-NH2 [SS-20],CL inhibition of cyt C reduction,cytochrome c (with CL),prevented CL inhibition of cyt C reduction
same,peroxidase activity in cytochrome c/CL complex,cytochrome c-CL complex [1],preventing peroxidase activity in cytochrome c/CL complex
same,kinetics of cyt c reduction induced by glutathione (GSH),cytochrome c,can accelerate the kinetics of cyt c reduction
same,disappearance of the negative Cotton effect caused by CL (heme environment of cytochrome c),[2],Protect the Heme Environment of Cytochrome C from the Acyl Chain of CL
same,O2 consumption in state 3 respiration,"[5]; glutamate/malate, succinate or TMPD/ascorbate, 400 μM ADP, FIG. 26",increases O2 consumption in state 3 respiration
same,"electron flux, as measured by O2 consumption","[5]; peptide 10 μM or 100 μM, complex I, complex II substrate or TMPD/ascorbate, FIG. 26",can promote electron flux
same,"electron flux, as measured by O2 consumption","[5]; peptide 100 μM, 0.5 mM succinate, 400 μM ADP, FIG. 14",can promote electron flux
same,rate of ATP production,isolated mitochondria,significant increase in the rate of ATP production
